Experimental data taken from patent publication US6787569B1, “Therapeutic guanidines” (Cambridge NeuroScience, Inc., priority 1994, dated 2004).
Where a name gives a salt, the structure may show the parent alone. Read-outs that look alike come from different tables or passages of the source.

How the values were obtained:
[1] = test system: veratridine-induced 3H-glutamate release from brain nerve terminals (voltage-activated presynaptic Na channels); experiment: Inhibition of veratridine-induced 3H-glutamate release, rapid superfusion of synaptosomes; type: biochemical, rat; conditions: 50 μM veratridine-induced release, rat brain synaptosomes; for % Inhibition of ^3H-Glu Rel @ 1 μM (*veratridine-induced glutamate release assay): 1 μM compound; for % Inhibition of ^3H-Glu Rel @ 3 μM (*veratridine-induced glutamate release assay): 3 μM compound
[2] = test system: depolarization-induced 3H-glutamate release from brain nerve terminals; experiment: Inhibition of 3H-glutamate release, high [K+] depolarization, rapid superfusion of synaptosomes; type: biochemical; conditions: rat brain synaptosomes; for % Inhibition of ^3H-Glu Rel @ 3 μM: 3 μM compound; for % Inhibition of ^3H-Glu Rel @ 1 μM: 1 μM compound; for % Inhibition of ^3H-Glu Rel @ 0.3 μM: 0.3 μM compound
[3] = biological target: Type II neuronal voltage-activated sodium channels (Rattus norvegicus, UniProt P04775); experiment: cell-based
[4] = test system: audiogenic seizures in DBA/2 mice; experiment: In vivo anticonvulsant activity in the DBA/2 mouse model (audiogenic seizures); conditions: 30 minutes prior to auditory stimulus
Description: Compounds were tested for their effectiveness in preventing seizures in DBA/2 mice which have a unique sensitivity to auditory stimulation. Exposure to loud high-frequency sounds can trigger seizure activity in these animals. This sensitivity develops from postnatal day 12 and peaks around day 21 and slowly diminishes as the animals mature. The unusual response to auditory stimulation in this strain of mouse is believed to be due to a combination of early myelination (causing an unusually low excitatory threshold) and delayed development of inhibitory mechanisms. Glutamate, the predominant excitatory neurotransmitter, has been implicated in this response. Blockade of glutamate receptors of the NMDA and AMPA subtypes, prevents audiogenic seizures in these mice. Compounds that block the release of glutamate should similarly act to prevent seizure activity, and may be therapeutic in other neurologic disorders such as stroke, which also involves glutamate-mediated damage.
Mice were injected intraperitoneally with the compound specified in Table V below or with vehicle control, 30 minutes prior to being placed in a bell jar and turning on the auditory stimulus (12 KHz sine wave at 110-120 db). Administered doses are specified in Table V as milligram of compound per kilogram bodyweight of mouse. The auditory stimulus was left on for 60 seconds and mice reactions were timed and recorded.
Percentage inhibition was determined with reference to vehicle controls.

[5] = veratridine (100 μM)-induced, tetrodotoxin-sensitive uptake, CHO cells expressing rat brain Type II Na channels, read-out: IC50, block of ^14C guanidinium uptake

Chain of Type II neuronal voltage-activated sodium channels (P04775 whole entry): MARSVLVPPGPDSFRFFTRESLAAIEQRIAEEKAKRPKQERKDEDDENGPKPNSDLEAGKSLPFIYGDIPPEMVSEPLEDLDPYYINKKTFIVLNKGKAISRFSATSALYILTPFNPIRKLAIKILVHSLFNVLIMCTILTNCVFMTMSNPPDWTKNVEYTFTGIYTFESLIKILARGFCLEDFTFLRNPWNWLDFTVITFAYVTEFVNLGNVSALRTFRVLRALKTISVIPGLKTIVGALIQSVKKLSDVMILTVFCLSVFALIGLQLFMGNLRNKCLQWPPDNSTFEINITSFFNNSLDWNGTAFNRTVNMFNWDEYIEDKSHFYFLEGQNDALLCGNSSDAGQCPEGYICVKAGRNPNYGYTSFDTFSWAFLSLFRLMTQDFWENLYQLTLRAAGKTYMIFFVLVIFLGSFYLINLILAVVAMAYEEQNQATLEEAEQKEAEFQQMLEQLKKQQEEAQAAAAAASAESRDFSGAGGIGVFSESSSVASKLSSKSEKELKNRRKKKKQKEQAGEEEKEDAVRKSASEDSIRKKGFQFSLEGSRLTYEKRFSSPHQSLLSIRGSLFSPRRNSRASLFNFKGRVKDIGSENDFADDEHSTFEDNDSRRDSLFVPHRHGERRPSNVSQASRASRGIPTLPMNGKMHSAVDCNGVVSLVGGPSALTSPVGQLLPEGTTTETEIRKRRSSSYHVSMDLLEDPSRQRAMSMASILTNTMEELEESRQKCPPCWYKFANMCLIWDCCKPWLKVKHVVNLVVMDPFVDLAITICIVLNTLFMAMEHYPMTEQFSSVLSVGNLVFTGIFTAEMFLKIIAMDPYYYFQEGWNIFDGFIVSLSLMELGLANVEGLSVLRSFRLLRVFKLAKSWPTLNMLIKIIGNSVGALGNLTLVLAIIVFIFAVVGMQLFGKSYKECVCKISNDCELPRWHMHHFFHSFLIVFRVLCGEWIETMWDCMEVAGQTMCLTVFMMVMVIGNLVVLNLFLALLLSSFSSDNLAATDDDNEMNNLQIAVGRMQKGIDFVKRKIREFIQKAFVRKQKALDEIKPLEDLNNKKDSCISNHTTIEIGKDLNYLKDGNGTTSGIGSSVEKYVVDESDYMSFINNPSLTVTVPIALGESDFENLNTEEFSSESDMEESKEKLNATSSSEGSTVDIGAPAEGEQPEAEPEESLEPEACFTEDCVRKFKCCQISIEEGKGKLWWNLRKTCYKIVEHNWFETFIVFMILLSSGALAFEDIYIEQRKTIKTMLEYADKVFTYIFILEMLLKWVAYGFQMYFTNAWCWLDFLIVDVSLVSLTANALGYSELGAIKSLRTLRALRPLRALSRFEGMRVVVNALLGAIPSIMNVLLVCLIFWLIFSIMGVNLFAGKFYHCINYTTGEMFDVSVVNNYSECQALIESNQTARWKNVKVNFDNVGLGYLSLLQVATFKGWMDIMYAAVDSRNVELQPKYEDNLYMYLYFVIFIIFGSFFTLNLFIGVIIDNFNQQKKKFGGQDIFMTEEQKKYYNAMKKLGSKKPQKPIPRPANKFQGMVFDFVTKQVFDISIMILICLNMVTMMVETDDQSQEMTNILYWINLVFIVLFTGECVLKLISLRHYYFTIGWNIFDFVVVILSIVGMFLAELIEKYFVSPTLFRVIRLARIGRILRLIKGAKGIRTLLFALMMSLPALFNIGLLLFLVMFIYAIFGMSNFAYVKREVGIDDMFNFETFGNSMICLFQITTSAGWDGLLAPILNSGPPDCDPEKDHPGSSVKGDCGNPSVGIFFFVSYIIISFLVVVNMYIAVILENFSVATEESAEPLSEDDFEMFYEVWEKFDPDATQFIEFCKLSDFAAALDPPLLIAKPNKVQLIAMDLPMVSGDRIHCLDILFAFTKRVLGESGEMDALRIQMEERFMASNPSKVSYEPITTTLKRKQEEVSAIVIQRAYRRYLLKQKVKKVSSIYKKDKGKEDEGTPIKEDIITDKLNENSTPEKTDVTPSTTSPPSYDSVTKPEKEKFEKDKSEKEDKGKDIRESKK

CCC(C)c1ccc(N2CCCN(c3ccc(C(C)CC)cc3)C2=N)cc1 (stereo not shown) (as salt: HBr) [Example 8, N,N′-Bis-(4-sec-butylphenyl)-2-iminopyrimidazolidine.HBr]
melting point: > 250 °C

CCC(C)c1ccc(N(Cc2ccc(C(C)(C)C)cc2)C(=N)N)cc1 (stereo not shown) (as salt: HCl) [Example 1, N-(4-sec-Butylphenyl)-N-(4-tert-butylbenzyl)guanidine.HCl]
melting point: 177 to 178 °C

N=C(Nc1ccc2c3c(cccc13)CC2)NC(c1ccccc1)c1ccccc1 (as salt: HCl) [Example 3, N-(5-Acenaphthyl)-N′-benzhydrylguanidine.HCl]
melting point: 225 to 227 °C

CCC(C)c1ccc(NC(=N)Nc2ccc(C(C)CC)cc2)cc1 (stereo not shown) (as salt: HCl) [Example 4, N,N′-bis(4-sec-Butylphenyl)guanidine.HCl]
melting point: 113 to 115 °C

CCC(C)c1ccc(N(C)C(=N)N(C)c2ccc(C(C)CC)cc2)cc1 (stereo not shown) (as salt: HCl) [Example 6]
melting point: 65 to 66 °C

CC(C)(C)c1ccc(CN(C(=N)N)c2cccc(I)c2)cc1 (as salt: HCl) [Example 48, N-(3-Iodophenyl)-N-(4-tert-butylbenzyl)guanidine.HCl]
melting point: 271 to 272 °C

CC(C)(C)c1ccc(CN(C(=N)N)c2ccc(Cl)c3ccccc23)cc1 (as salt: HCl) [Example 49, N-(4-Chloro-1-naphthyl)-N-(4-tert-benzyl)guanidine.HCl]
melting point: 115 to 117 °C

CCC(C)c1ccc(NC(=N)N(C)c2ccc(C(C)CC)cc2)cc1.Cl (stereo not shown) [Example 5, N,N′-bis(4-sec-Butylphenyl)-N-methyl guanidine.HCl]
% Inhibition of ^3H-Glu Rel @ 1 μM (*veratridine-induced glutamate release assay) [1]: 68* %

CCC(C)c1ccc(N2CCCN(c3ccc(C(C)CC)cc3)C2=N)cc1 (stereo not shown) [Example 8, N,N′-Bis-(4-sec-butylphenyl)-2-iminopyrimidazolidine.HBr]
% Inhibition of ^3H-Glu Rel @ 3 μM [2]: 50%
IC50 [3]: 200 nM
Audiogenic Response % Inhib. ([4]; 2 mg/kg intraperitoneally): 41%
Audiogenic Response % Inhib. ([4]; 4 mg/kg intraperitoneally): 75%

N=C(N=Cc1cccc2ccccc12)Nc1ccc2c3c(cccc13)CC2 [Example 10, N-(5-Acenaphthyl)-N′-[(1-naphthyl)-methylene]guanidine.CH3SO3H]
% Inhibition of ^3H-Glu Rel @ 1 μM (*veratridine-induced glutamate release assay) [1]: 24* %
% Inhibition of ^3H-Glu Rel @ 3 μM (*veratridine-induced glutamate release assay) [1]: 71* %

CC(C)c1ccc(NC(=N)Nc2ccc3ccccc3c2)cc1 [Example 11, N-(2-Naphthyl)-N′-(4-isopropylphenyl)guanidine.HCl]
IC50 [3, 5]: 900 nM

N=C(Nc1ccc2c(c1)Cc1ccccc1-2)Nc1ccc2c(c1)Cc1ccccc1-2 [Example 12, N,N′-Bis(2-fluorenyl)guanidine.HBr]
IC50 [3, 5]: 1500 nM

CC(C)(C)c1ccc(NC(=N)Nc2ccc(Cl)c(Cl)c2Cl)cc1.Cl [Example 14, N-(4-tert-Butylphenyl)-N′-(2,3,4-trichlorophenyl)guanidine.HCl]
% Inhibition of ^3H-Glu Rel @ 3 μM [2]: 63%
IC50 [3, 5]: 1800 nM

N=C(Nc1ccc2ccccc2c1)NC1C2CC3CC(C2)CC1C3 (stereo not shown) [Example 16, N-(2-Naphthyl)-N′-(2-adamantyl)guanidine.HCl]
IC50 [3, 5]: 500 nM

CCC(C)c1ccc(N(Cc2ccccc2)C(=N)N)cc1 (stereo not shown) [Example 17, N-(4-sec-Butylphenyl)-N-benzylguanidine]
melting point: 65 to 67 °C

CC(C)c1ccc(CN(C(=N)N)c2ccc(C3CCCCC3)cc2)cc1 [Example 20, N-(4-Cyclohexylphenyl)-N-(4-isopropylbenzyl)guanidine.HCl]
IC50 [3, 5]: 900 nM

CC(C)(C)c1ccc(CN(C(=N)N)c2ccc(C3CCCCC3)cc2)cc1 [Example 21, N-(4-Cyclohexylphenyl)-N-(4-tert-butylbenzyl)guanidine.HCl]
IC50 [3, 5]: 1900 nM

CC(C)(C)c1ccc(CN(C(=N)N)c2ccc3c(c2)Cc2ccccc2-3)cc1 [Example 22, N-(2-Fluorenyl)-N-(4-tert-butylbenzyl)guanidine.HCl]
IC50 [3, 5]: 500 nM

CCC(C)c1ccc(N(C/C=C/c2ccccc2)C(=N)N)cc1.Cl (stereo not drawn) [Example 23, N-(4-sec-Butylphenyl)-N-(trans-cinnamyl)guanidine.HCl]
% Inhibition of ^3H-Glu Rel @ 3 μM (*veratridine-induced glutamate release assay) [1]: 33* %

CCCCOc1ccc(N(Cc2ccc(C(C)(C)C)cc2)C(=N)N)cc1.Cl [Example 24, N-(4-n-Butoxyphenyl)-N-(4-tert-butylbenzyl)guanidine.HCl]
% Inhibition of ^3H-Glu Rel @ 1 μM (*veratridine-induced glutamate release assay) [1]: 62* %
IC50 [3, 5]: 1800 nM

CC(C)(C)c1ccc(CN(C(=N)N)c2ccc3c(c2)CCC3)cc1 [Example 26, N-(5-Indanyl)-N-(4-tert-butylbenzyl)guanidine.HCl]
IC50 [3, 5]: 700 nM

CC(C)(C)c1ccc(CN(C(=N)N)c2cccc(OC(F)(F)F)c2)cc1.Cl [Example 27, N-(3-Trifluoromethoxyphenyl)-N-(4-tert-butylbenzyl)guanidine.HCl]
% Inhibition of ^3H-Glu Rel @ 1 μM [2]: 24%
IC50 [3, 5]: 1200 nM

Cl.N=C(Nc1ccc(OCc2ccccc2)cc1)Nc1cccc(OCc2ccccc2)c1 [Example 42, N-(3-Benzyloxyphenyl)-N′-(4-benzyloxyphenyl)guanidine.HCl]
% Inhibition of ^3H-Glu Rel @ 0.3 μM [2]: 54%
% Inhibition of ^3H-Glu Rel @ 1 μM [2]: 90%
% Inhibition of ^3H-Glu Rel @ 3 μM (*veratridine-induced glutamate release assay) [1]: 60* %
IC50 [3, 5]: 700 nM

Cl.N=C(NCCCc1ccccc1)Nc1ccc2c3c(cccc13)CC2 [Example 43, N-(5-Acenaphthyl)-N′-(3-phenylpropyl)guanidine.HCl]
% Inhibition of ^3H-Glu Rel @ 3 μM [2]: 60%
% Inhibition of ^3H-Glu Rel @ 1 μM (*veratridine-induced glutamate release assay) [1]: 43* %

CC(CNC(=N)Nc1ccc2c3c(cccc13)CC2)c1ccccc1.Cl (stereo not shown) [Example 44, N-(5-Acenaphthyl)-N′-(2-methyl-2-phenylethyl)guanidine.HCl]
% Inhibition of ^3H-Glu Rel @ 1 μM (*veratridine-induced glutamate release assay) [1]: 43* %
% Inhibition of ^3H-Glu Rel @ 3 μM (*veratridine-induced glutamate release assay) [1]: 71* %

CC(C)(C)c1ccc(CN(C(=N)N)c2cccc(I)c2)cc1 [Example 48, N-(3-Iodophenyl)-N-(4-tert-butylbenzyl)guanidine.HCl]
% Inhibition of ^3H-Glu Rel @ 1 μM (*veratridine-induced glutamate release assay) [1]: 23* %
IC50 [3]: 400 nM

CC(C)(C)c1ccc(CN(C(=N)N)c2ccc(Cl)c3ccccc23)cc1 [Example 49, N-(4-Chloro-1-naphthyl)-N-(4-tert-benzyl)guanidine.HCl]
% Inhibition of ^3H-Glu Rel @ 1 μM (*veratridine-induced glutamate release assay) [1]: 32* %
IC50 [3]: 2200 nM

CC(C)(C)c1ccc(NC(=N)Nc2cccc(OCc3ccccc3)c2)cc1.CS(=O)(=O)O [Example 108, N-(3-Benzyloxy)phenyl-N′-(4-tert-butylphenyl)guanidine.mesylate]
% Inhibition of ^3H-Glu Rel @ 0.3 μM [2]: 49%
Audiogenic Response % Inhib. ([4]; 40 mg/kg intraperitoneally): 80%

CCCCc1ccc(NC(=N)N(C)c2ccc(OCc3ccccc3)cc2)cc1.CS(=O)(=O)O [Example 110, N-(4-Benzyloxyphenyl)-N-methyl-N′-(4-butylphenyl)guanidine.mesylate]
% Inhibition of ^3H-Glu Rel @ 0.3 μM [2]: 77%
Audiogenic Response % Inhib. ([4]; 20 mg/kg intraperitoneally): 42.3%
Audiogenic Response % Inhib. ([4]; 40 mg/kg intraperitoneally): 92.5%

N-(4-sec-Butylphenyl)-N-(4-t-butylbenzyl)-N′-pyrrolidinylguanidine.HCl [Example 72]
% Inhibition of ^3H-Glu Rel @ 0.3 μM [2]: 48%
Audiogenic Response % Inhib. ([4]; 20 mg/kg intraperitoneally): 52%
Audiogenic Response % Inhib. ([4]; 40 mg/kg intraperitoneally): 81%
